Reference: US20250122191A1, “COMPOUNDS AS BCL-2 INHIBITORS” (Fochon Biosciences, Ltd, priority 2021, published 2025)

How the values were obtained:
[1] = Pharmacokinetics assay in rats; assay type: in vivo; settings: rat, male Sprague-Dawley rats, po, 5 mg/kg, plasma; for Cmax: read-out: Cmax/C0
Procedure: The purpose of this study was to determine the pharmacokinetics of Examples in male Sprague-Dawley rats (Supplied by Beijing Vital River Laboratory Animal Technology Co., Ltd.) following a single intravenous bolus injection at 1 mg/kg and oral gavage (PO) administration at 5 mg/kg.
Animals in Group 1 were administered with Examples by single intravenous bolus injection at 1 mg/kg, which was formulated in 10% DMSO (Sigma, Batch #LPCOS181): 60% PEG400 (Sigma, Batch #MKCH6281): 30% water, pH 5-6 at 1 mg/mL as a solution. Animals in Group 2 were administered with Examples by single oral gavage (PO) administration at 5 mg/kg, which was formulated in 10% DMSO (Sigma, Batch #BCCD6641): 60% PEG400 (Sigma, Batch #MKCL4921): 30% water at 1 mg/mL as a solution. Blood samples were collected at 0.083, 0.25, 0.5, 1, 2, 4, 8, 12 and 24 hours post-dose. Concentrations of Examples in plasma were determined by LC/MS/MS (LC: Waters UPLC; MS: Triple Quad 6500 plus).

RS4;11-BCL-2 G101V cells = assay: Cell proliferation assay (MTS), RS4;11-BCL-2 G101V engineered cells; assay type: cell-based; settings: Homo sapiens, 120 h, read-out: RS4, 11 BCL2-G101V IC50
Procedure, shortened: (§1)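 Cells were plated, allowed to settle 4 h (G101V, F104L) or 24 h (D103E, D103Y), and treated with serially diluted compound (10000 down to 1.5 nM). After 120 h or 72 h respectively at 37 °C, MTS was added for 2 h and absorbance at 490 nm gave IC50 values.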

RS4;11-BCL-2 F104L cells = assay: Cell proliferation assay (MTS), RS4;11-BCL-2 F104L engineered cells; assay type: cell-based; settings: Homo sapiens, 120 h, read-out: RS4, 11 BCL2-F104L IC50
Procedure, shortened: as §1

RS4;11-BCL-2 D103E cells = assay: Cell proliferation assay (MTS), RS4;11-BCL-2 D103E engineered cells; assay type: cell-based; settings: Homo sapiens, 72 h, read-out: RS4, 11 BCL2-D103E IC50
Procedure, shortened: as §1

Toledo cells = assay: Cell proliferation assay (MTS), Toledo cells; assay type: cell-based; settings: Homo sapiens, 72 h
Procedure, shortened: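 Toledo cells (RPMI-1640, 10% FBS) seeded at 30000 cells/well, rested 4 h, then exposed 72 h at 37 °C, 5% CO2 to compound at nine final concentrations, 1.5–10000 nM. Viability by MTS (2 h), absorbance at 490 nm. IC50 from the concentration-response.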

Row | Structure (SMILES) | AUC(0-t) [1] [ng·h/mL] | half-life [1] [h] | Cmax [1] [ng/mL] | IC50 (RS4;11-BCL-2 G101V cells) [nM] | IC50 (RS4;11-BCL-2 F104L cells) [nM] | IC50 (RS4;11-BCL-2 D103E cells) [nM] | IC50 (Toledo cells) [nM]
1 | COc1ccc(CN2CCN(C3CC4(CCN(c5ccc(C(=O)NS(=O)(=O)c6cnc(NC[C@H]7CC[C@](C)(O)CC7)c([N+](=O)[O-])c6)c(Oc6cc7c(F)c[nH]c7nc6OC)c5)CC4)C3)[C@H](c3ccccc3C(C)C)C2)cc1 [Example 1, 2-((3 fluoro-6-methoxy-1H pyrrolo[2,3-b]pyridin-5 yl)oxy)-N-((6-((((1r, 4r)-4-hydroxy-4-methylcyclohexyl)methyl)amino)-5-nitropyridin-3-yl)sulfonyl)-4-(2-((R)-2-(2-isopropylphenyl)-4-(4-methoxybenzyl)piperazin-1-yl)-7-azaspiro[3.5]nonan-7-yl)benzamide] | 3030 | 9.02 | 227 | 1 | 1 | 2 | 1
2 | CCOc1nc2[nH]cc(F)c2cc1Oc1cc(N2CCC3(CC2)CC(N2CCN(Cc4ccc(OC)cc4)C[C@H]2c2ccccc2C(C)C)C3)ccc1C(=O)NS(=O)(=O)c1cnc(NC[C@H]2CC[C@](C)(O)CC2)c([N+](=O)[O-])c1 [Example 2, 2-((6-ethoxy-3-fluoro-1H-pyrrolo[2,3-b]pyridin-5-yl)oxy)-N-((6-((((1r,4r)-4-hydroxy-4-methylcyclohexyl)methyl)amino)-5-nitropyridin-3-yl)sulfonyl)-4-(2-((R)-2-(2-isopropylphenyl)-4-(4-methoxybenzyl)piperazin-1-yl)-7-azaspiro[3.5]nonan-7-yl)benzamide] | 1920 | 7.62 | 166 | 1 | – | 3 | 1
3 | COc1nc2[nH]cc(F)c2cc1Oc1cc(N2CCC3(CC2)CC(N2CCN(Cc4ccc(F)c(F)c4)C[C@H]2c2ccccc2C(C)C)C3)ccc1C(=O)NS(=O)(=O)c1cnc(NC[C@H]2CC[C@](C)(O)CC2)c([N+](=O)[O-])c1 [Example 3, 4-(2-((R)-4-(3,4-difluorobenzyl)-2-(2-isopropylphenyl)piperazin-1-yl)-7-azaspiro[3.5]nonan-7-yl)-2-((3-fluoro-6-methoxy-1H-pyrrolo[2,3-b]pyridin-5-yl)oxy)-N-((6-((((1r,4r)-4-hydroxy-4-methylcyclohexyl)methyl)amino)-5-nitropyridin-3-yl)sulfonyl)benzamide] | 4650 | 9.21 | 382 | 1 | 1 | – | 1
4 | CCOc1nc2[nH]cc(F)c2cc1Oc1cc(N2CCC3(CC2)CC(N2CCN(Cc4ccc(F)c(F)c4)C[C@H]2c2ccccc2C(C)C)C3)ccc1C(=O)NS(=O)(=O)c1cnc(NC[C@H]2CC[C@](C)(O)CC2)c([N+](=O)[O-])c1 [Example 4, 4-(2-((R)-4-(3,4-difluorobenzyl)-2-(2-isopropylphenyl)piperazin-1-yl)-7-azaspiro[3.5]nonan-7-yl)-2-((6-ethoxy-3-fluoro-1H-pyrrolo[2,3-b]pyridin-5-yl)oxy)-N-((6-((((1r,4r)-4-hydroxy-4-methylcyclohexyl)methyl)amino)-5-nitropyridin-3-yl)sulfonyl)benzamide] | 1740 | 9.57 | 176 | 1 | 1 | – | 1
5 | COc1cc(CN2CCN(C3CC4(CCN(c5ccc(C(=O)NS(=O)(=O)c6cnc(NC[C@H]7CC[C@](C)(O)CC7)c([N+](=O)[O-])c6)c(Oc6cc7c(F)c[nH]c7nc6OC)c5)CC4)C3)[C@H](c3ccccc3C(C)C)C2)ccc1C1CC1 [Example 5, 4-(2-((R)-4-(4-cyclopropyl-3-methoxybenzyl)-2-(2-isopropylphenyl)piperazin-1-yl)-7-azaspiro[3.5]nonan-7-yl)-2-((3-fluoro-6-methoxy-1H-pyrrolo[2,3-b]pyridin-5-yl)oxy)-N-((6-((((1r,4r)-4-hydroxy-4-methylcyclohexyl)methyl)amino)-5-nitropyridin-3-yl)sulfonyl)benzamide] | 2260 | 24.4 | 37.1 | 1 | 1 | – | 1
6 | COc1nc2[nH]cc(F)c2cc1Oc1cc(N2CCC3(CC2)CC(N2CCN(Cc4ccc(OC)c5oc(C)cc45)C[C@H]2c2ccccc2C(C)C)C3)ccc1C(=O)NS(=O)(=O)c1cnc(NC[C@H]2CC[C@](C)(O)CC2)c([N+](=O)[O-])c1 [Example 13, 2-((3-fluoro-6-methoxy-1H-pyrrolo[2,3-b]pyridin-5-yl)oxy)-N-((6-((((1r,4r)-4-hydroxy-4-methylcyclohexyl)methyl)amino)-5-nitropyridin-3-yl)sulfonyl)-4-(2-((R)-2-(2-isopropylphenyl)-4-((7-methoxy-2-methylbenzofuran-4-yl)methyl)piperazin-1-yl)-7-azaspiro[3.5]nonan-7-yl)benzamide] | 1890 | 11.3 | 198 | 1 | 1 | 1 | 1
7 | COc1nc2[nH]cc(F)c2cc1Oc1cc(N2CCC3(CC2)CC(N2CCN(Cc4ccc(Cl)cc4)C[C@H]2c2ccccc2C(C)C)C3)ccc1C(=O)NS(=O)(=O)c1cnc(NC[C@H]2CC[C@](C)(O)CC2)c([N+](=O)[O-])c1 [Example 230, 4-(2-((R)-4-(4-chlorobenzyl)-2-(2-isopropylphenyl)piperazin-1-yl)-7-azaspiro[3.5]nonan-7-yl)-2-((3-fluoro-6-methoxy-1H-pyrrolo[2,3-b]pyridin-5-yl)oxy)-N-((6-((((1r,4r)-4-hydroxy-4-methylcyclohexyl)methyl)amino)-5-nitropyridin-3-yl)sulfonyl)benzamide] | 3750 | 10.2 | 329 | 1 | 1 | – | 1
8 | COc1nc2[nH]cc(F)c2cc1Oc1cc(N2CCC3(CC2)CC(N2CCN(Cc4ccc(F)cc4)C[C@H]2c2ccccc2C(C)C)C3)ccc1C(=O)NS(=O)(=O)c1cnc(NC[C@H]2CC[C@](C)(O)CC2)c([N+](=O)[O-])c1 [Example 233, 2-((3-fluoro-6-methoxy-1H-pyrrolo[2,3-b]pyridin-5-yl)oxy)-4-(2-((R)-4-(4-fluorobenzyl)-2-(2-isopropylphenyl)piperazin-1-yl)-7-azaspiro[3.5]nonan-7-yl)-N-((6-((((1r,4r)-4-hydroxy-4-methylcyclohexyl)methyl)amino)-5-nitropyridin-3-yl)sulfonyl)benzamide] | 3920 | 7.36 | 439 | 1 | 1 | – | 1
9 | COc1cc(CN2CCN(C3CC4(CCN(c5ccc(C(=O)NS(=O)(=O)c6cnc(NC[C@H]7CC[C@](C)(O)CC7)c([N+](=O)[O-])c6)c(Oc6cc7c(F)c[nH]c7nc6OC)c5)CC4)C3)[C@H](c3ccccc3C(C)C)C2)ccn1 [Example 242, 2-((3-fluoro-6-methoxy-1H-pyrrolo[2,3-b]pyridin-5-yl)oxy)-N-((6-((((1r,4r)-4-hydroxy-4-methylcyclohexyl)methyl)amino)-5-nitropyridin-3-yl)sulfonyl)-4-(2-((R)-2-(2-isopropylphenyl)-4-((2-methoxypyridin-4-yl)methyl)piperazin-1-yl)-7-azaspiro[3.5]nonan-7-yl)benzamide] | 2760 | 7.02 | 272 | 1 | 1 | 1 | 1
10 | COc1nc2[nH]cc(F)c2cc1Oc1cc(N2CCC3(CC2)CC(N2CCN(Cc4ccc(C5CC5)c(OC)n4)C[C@H]2c2ccccc2C(C)C)C3)ccc1C(=O)NS(=O)(=O)c1cnc(NC[C@H]2CC[C@](C)(O)CC2)c([N+](=O)[O-])c1 [Example 289, 4-(2-((R)-4-((5-cyclopropyl-6-methoxypyridin-2-yl)methyl)-2-(2-isopropylphenyl)piperazin-1-yl)-7-azaspiro[3.5]nonan-7-yl)-2-((3-fluoro-6-methoxy-1H-pyrrolo[2,3-b]pyridin-5-yl)oxy)-N-((6-((((1r,4r)-4-hydroxy-4-methylcyclohexyl)methyl)amino)-5-nitropyridin-3-yl)sulfonyl)benzamide] | 3450 | 8.1 | 357 | 2 | 1 | 1 | 1
